Activity calls are given as the source filed them.
Tests used:
[1] = molecular target: T1, E3 ubiquitin-protein ligase XIAP (Homo sapiens, UniProt P98170); assay: XIAP antagonists, biochemical, IAP family, fluorescence polarization (AID 1018); format: functional
[2] = molecular target: T1, E3 ubiquitin-protein ligase XIAP; assay: Counter Screen using XIAP-Bir3 for Chemical Antagonists of Bir1/2 domains of IAP-family anti-apoptotic proteins. [Related pubchem assays (depositor defined):AID1018, AID1449, AID1514, AID1638, AID1749, AID1750, AID488957, AID488963]
Genome polyprotein = Genome polyprotein (dengue virus type 2, UniProt P29990); assay: Dengue-2 NS5 methyltransferase inhibitors, primary screen, biochemical, confirmation dose response (AID 588689); format: functional
[3] = molecular target: Lysine-specific demethylase 4C (Homo sapiens, UniProt Q9H3R0); assay: GASC-1 (JMJD2C) histone demethylase inhibitors, dose response, biochemical, DELFIA europium, cherry-picked samples (AID 488835); format: functional
CHO-K1 = assay: Counterscreen for antagonists of the orexin 1 receptor (OX1R; HCRTR1): Homogeneous time resolved fluorescence (HTRF)-based cell-based dose response assay to identify antagonists of the parental CHO-K1 cell line. [Related pubchem assays (depositor defined):AID434989, AID435008, AID463079, AID485270, AID492963, AID492964, AID492965, AID493232, AID504699, AID504701]; format: functional; settings: Cricetulus griseus;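 also: potency for inhibition of ATP-stimulated IP1 production as antagonists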
[4] = Counterscreen for antagonists of the orexin 1 receptor (OX1R; HCRTR1): Fluorescence-based cell-based high throughput dose response assay to identify antagonists of the parental CHO cell line. [Related pubchem assays (depositor defined):AID434989, AID435008, AID463079, AID485270, AID492963, AID492964, AID492965, AID493232, AID504699, AID504701]; format: functional
[5] = molecular target: T2, Orexin/Hypocretin receptor type 1 (Homo sapiens, UniProt O43613); assay: Fluorescence-based cell-based high throughput dose response assay for antagonists of the orexin 1 receptor (OX1R; HCRTR1). [Related pubchem assays (depositor defined):AID434989, AID435008, AID463079, AID485270, AID492963, AID492964, AID492965, AID493232, AID504717, AID504718]; format: functional
T2 sequence (O43613 whole entry): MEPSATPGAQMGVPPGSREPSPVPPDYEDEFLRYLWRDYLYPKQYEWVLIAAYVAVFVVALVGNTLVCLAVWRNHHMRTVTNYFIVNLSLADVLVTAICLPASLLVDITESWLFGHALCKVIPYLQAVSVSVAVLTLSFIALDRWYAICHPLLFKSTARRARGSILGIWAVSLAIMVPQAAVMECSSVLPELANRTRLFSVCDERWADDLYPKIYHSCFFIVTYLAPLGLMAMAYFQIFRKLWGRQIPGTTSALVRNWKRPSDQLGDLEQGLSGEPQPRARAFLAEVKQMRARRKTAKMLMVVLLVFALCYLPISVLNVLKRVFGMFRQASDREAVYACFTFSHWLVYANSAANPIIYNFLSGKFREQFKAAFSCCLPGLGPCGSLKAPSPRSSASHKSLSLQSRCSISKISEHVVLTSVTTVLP

[6] = molecular target: T2, Orexin/Hypocretin receptor type 1; assay: Homogeneous Time Resolved Fluorescence (HTRF)-based cell-based high throughput dose response assay for antagonists of the orexin 1 receptor (OX1R; HCRTR1). [Related pubchem assays (depositor defined):AID434989, AID435008, AID463079, AID485270, AID492963, AID492964, AID492965, AID493232, AID504717, AID504718]; format: functional
[7] = Luminescence Cell-Based Dose Response HTS to Identify Activators of 5'UTR Stem-Loop Driven Prion Protein mRNA Translation in H4-C Neuroglioblastoma Cells. [Related pubchem assays: 1829 (Project Summary), 1814 (Primary HTS)]; format: functional
[8] = inhibitors of SNCA 5'UTR-driven reporter translation, confirmation, H4 neuroglioma cells, luminescence (AID 1988); format: functional, cell-based
[9] = Luminescence Cell-Based Dose Confirmation HTS to Identify Inhibitors of 5'UTR Stem-Loop Driven Alpha-Synuclein mRNA Translation in H4 Neuroglioblastoma Cells. [Related pubchem assays: 1827 (Project Summary), 1813 (Primary HTS)]; format: functional
[10] = Luminescence Cell-Based Dose HTS Response to Identify Inhibitors of 5'UTR Stem-Loop Driven Prion Protein mRNA Translation in H4-C Neuroglioblastoma Cells. [Related pubchem assays (depositor defined):AID1814, AID1827]; format: functional
[11] = cytotoxicity toward DRD oncogenic fibroblasts, dose response, cell-based, non-viral oncogenic, luminescence (AID 1934); format: functional; settings: Homo sapiens
[12] = Luminescence Cell-Based Dose Response HTS to Identify Activators of Luciferase Translation or Activity in H4-C Neuroglioblastoma Cells. [Related pubchem assays: 1829 (Project Summary), 1814 (Primary HTS)]; format: functional
BJ [13] = assay: cytotoxicity toward BJ-TERT-LT-ST fibroblasts, dose response, cell-based, RAS-independent, luminescence (AID 1935); format: functional; settings: Homo sapiens;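 also: BJ fibroblasts immortalized with TERT plus LT and ST oncogenes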
BJ [14] = assay: cytotoxicity toward BJ-TERT fibroblasts, dose response, cell-based, RAS-independent, luminescence (AID 1933); format: functional; settings: Homo sapiens
[15] = inhibitors of firefly luciferase expression or activity, dose response, H4 neuroglioma cells, luminescence (AID 1990); format: functional, cell-based
[16] = Luminescence Cell-Based Dose Response HTS to Identify Inhibitors of Luciferase Translation or Activity in H4-C Neuroglioblastoma Cells. [Related pubchem assays: 1813 (Primary HTS), 1827 (Project Summary)]; format: functional
BJ [17] = assay: cells; format: functional, cell-based; settings: Homo sapiens
[18] = Luminescence Cell-Based Dose Response HTS to Identify Inhibitors of 5'UTR Stem-Loop Driven Prion Protein mRNA Translation in H4 Neuroglioblastoma Cells. [Related pubchem assays: 1827 (Project Summary), 1813 (Primary HTS)]; format: functional
[19] = Luminescence Cell-Based Dose Retest to Confirm Activators of 5'UTR Stem-Loop Driven Alpha-Synuclein mRNA Translation in H4 Neuroglioblastoma Cells. [Related pubchem assays (depositor defined):AID1813, AID1829]; format: functional
[20] = molecular target: Glyceraldehyde-3-phosphate dehydrogenase (Homo sapiens, UniProt P04406)
[21] = molecular target: T3, Alkaline phosphatase, tissue-nonspecific isozyme (Homo sapiens, UniProt P05186); assay: human TNAP enzyme inhibitors, SAR follow-up, biochemical, luminescent, dose response (AID 1056)
T3 sequence (P05186 whole entry): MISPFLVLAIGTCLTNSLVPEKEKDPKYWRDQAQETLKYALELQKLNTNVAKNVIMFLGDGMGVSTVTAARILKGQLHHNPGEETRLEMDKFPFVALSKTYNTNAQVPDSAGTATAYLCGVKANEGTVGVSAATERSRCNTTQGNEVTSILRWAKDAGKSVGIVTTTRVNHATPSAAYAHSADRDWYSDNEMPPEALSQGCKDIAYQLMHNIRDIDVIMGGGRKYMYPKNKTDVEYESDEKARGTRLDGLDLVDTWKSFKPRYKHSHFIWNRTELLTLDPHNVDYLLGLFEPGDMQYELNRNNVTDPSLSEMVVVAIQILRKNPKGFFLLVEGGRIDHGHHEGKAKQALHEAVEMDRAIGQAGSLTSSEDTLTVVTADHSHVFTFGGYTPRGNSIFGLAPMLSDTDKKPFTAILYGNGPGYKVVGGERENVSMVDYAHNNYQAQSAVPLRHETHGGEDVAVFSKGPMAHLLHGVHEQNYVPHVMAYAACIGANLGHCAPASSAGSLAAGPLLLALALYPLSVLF

SUMO E1/E2 = SUMO E1/E2 (Homo sapiens, UniProt P63279+Q9UBE0+Q9UBT2); assay: SAR analysis of SUMOylation using HTRF in an in-Vitro dose response assay. [Related pubchem assays (depositor defined):AID2006, AID2011, AID2018, AID2069, AID2658]; format: functional
Sequence of SUMO E1/E2 (Q9UBE0 whole entry): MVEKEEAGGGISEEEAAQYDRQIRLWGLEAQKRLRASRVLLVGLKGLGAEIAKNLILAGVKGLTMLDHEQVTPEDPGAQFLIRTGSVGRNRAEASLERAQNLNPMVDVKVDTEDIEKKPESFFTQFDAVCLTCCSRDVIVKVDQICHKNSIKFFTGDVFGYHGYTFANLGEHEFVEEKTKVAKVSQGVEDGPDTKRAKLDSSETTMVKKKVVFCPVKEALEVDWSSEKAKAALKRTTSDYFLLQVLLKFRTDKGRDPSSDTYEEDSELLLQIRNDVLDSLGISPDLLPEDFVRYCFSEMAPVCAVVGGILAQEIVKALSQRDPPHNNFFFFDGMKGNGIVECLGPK
Sequence of SUMO E1/E2 (Q9UBT2 whole entry): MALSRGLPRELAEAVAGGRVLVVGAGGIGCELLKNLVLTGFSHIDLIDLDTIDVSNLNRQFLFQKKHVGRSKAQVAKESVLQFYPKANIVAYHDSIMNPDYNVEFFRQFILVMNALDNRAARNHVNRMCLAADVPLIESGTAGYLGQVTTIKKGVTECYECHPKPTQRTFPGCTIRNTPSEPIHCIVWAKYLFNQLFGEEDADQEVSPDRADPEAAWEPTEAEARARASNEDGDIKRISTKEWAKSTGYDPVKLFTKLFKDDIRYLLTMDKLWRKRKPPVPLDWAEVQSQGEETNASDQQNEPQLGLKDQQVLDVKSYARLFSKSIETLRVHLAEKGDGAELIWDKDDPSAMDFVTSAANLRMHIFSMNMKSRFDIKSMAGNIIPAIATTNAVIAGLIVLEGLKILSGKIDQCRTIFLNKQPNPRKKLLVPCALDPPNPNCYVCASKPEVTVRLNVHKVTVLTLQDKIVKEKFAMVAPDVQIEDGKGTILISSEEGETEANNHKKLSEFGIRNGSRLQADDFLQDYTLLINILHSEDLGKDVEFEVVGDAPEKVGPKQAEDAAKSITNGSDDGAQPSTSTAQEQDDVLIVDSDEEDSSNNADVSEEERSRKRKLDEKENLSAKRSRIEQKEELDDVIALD
Sequence of SUMO E1/E2 (P63279 whole entry): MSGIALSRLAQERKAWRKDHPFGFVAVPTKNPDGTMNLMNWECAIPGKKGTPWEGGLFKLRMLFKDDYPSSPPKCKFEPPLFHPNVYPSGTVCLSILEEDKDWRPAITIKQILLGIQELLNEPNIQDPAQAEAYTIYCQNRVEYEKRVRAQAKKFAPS

[22] = molecular target: T4, Voltage-gated N-type calcium channel alpha-1B subunit/Amyloid beta A4 precursor protein-binding family A member 1 (Homo sapiens, UniProt Q00975+Q02410); format: protein assay
T4 sequence (Q00975 whole entry): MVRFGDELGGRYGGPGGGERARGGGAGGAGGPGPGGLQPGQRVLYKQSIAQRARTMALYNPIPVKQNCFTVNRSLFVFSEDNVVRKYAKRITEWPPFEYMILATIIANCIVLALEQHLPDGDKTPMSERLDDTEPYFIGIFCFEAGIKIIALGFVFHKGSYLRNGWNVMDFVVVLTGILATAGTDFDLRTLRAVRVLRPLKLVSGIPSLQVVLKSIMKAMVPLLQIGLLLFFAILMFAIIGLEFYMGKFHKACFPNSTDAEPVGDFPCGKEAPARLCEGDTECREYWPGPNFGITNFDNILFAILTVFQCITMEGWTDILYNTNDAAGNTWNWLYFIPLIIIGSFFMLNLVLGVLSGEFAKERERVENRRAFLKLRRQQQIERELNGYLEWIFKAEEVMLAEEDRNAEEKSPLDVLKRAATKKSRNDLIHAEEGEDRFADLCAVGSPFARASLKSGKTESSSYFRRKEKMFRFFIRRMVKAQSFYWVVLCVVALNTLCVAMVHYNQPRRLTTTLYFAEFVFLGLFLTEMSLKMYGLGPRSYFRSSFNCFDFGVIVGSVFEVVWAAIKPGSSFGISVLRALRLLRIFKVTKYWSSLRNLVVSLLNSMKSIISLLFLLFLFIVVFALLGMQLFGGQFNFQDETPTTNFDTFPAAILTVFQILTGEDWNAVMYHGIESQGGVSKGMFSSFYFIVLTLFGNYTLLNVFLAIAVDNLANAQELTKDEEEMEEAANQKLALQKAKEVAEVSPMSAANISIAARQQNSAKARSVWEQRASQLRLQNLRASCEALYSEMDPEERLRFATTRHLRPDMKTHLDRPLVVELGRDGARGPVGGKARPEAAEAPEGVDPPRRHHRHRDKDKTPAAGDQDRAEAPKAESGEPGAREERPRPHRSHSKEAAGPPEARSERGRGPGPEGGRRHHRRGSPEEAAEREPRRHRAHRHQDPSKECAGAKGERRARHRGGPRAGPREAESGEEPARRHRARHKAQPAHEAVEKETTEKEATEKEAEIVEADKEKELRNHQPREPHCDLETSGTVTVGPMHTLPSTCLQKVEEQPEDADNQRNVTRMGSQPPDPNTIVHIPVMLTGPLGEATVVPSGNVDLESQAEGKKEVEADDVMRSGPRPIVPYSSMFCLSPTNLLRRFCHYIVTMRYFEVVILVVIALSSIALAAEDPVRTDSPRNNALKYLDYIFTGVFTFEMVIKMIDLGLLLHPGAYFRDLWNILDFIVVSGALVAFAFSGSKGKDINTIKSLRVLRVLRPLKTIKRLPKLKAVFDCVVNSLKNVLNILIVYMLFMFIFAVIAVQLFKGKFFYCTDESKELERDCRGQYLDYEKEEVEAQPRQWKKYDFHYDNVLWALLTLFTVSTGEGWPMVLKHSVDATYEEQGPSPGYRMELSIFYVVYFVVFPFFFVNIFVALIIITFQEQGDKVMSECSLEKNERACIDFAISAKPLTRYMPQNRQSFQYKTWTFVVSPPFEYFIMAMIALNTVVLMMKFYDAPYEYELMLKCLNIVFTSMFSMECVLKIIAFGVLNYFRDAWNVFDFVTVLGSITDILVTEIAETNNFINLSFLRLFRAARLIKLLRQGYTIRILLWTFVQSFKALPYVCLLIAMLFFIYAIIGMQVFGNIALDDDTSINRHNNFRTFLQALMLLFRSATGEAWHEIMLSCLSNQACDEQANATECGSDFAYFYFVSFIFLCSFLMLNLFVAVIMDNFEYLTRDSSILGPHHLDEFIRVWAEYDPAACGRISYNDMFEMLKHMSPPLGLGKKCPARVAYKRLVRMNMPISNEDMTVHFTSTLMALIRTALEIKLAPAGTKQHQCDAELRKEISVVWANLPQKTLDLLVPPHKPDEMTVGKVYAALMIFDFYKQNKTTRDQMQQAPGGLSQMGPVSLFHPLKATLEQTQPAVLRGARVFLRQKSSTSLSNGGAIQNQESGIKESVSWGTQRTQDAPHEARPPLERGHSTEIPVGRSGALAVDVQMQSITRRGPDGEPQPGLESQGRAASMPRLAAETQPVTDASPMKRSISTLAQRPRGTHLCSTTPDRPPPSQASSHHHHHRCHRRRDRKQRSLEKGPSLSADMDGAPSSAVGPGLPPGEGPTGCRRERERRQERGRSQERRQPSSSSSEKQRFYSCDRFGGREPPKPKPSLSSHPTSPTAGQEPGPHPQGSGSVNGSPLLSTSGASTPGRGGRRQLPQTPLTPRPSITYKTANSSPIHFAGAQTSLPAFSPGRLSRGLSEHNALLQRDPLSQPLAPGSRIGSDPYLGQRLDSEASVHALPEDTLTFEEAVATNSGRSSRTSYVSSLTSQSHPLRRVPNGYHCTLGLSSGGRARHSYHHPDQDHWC
T4 sequence (Q02410 whole entry): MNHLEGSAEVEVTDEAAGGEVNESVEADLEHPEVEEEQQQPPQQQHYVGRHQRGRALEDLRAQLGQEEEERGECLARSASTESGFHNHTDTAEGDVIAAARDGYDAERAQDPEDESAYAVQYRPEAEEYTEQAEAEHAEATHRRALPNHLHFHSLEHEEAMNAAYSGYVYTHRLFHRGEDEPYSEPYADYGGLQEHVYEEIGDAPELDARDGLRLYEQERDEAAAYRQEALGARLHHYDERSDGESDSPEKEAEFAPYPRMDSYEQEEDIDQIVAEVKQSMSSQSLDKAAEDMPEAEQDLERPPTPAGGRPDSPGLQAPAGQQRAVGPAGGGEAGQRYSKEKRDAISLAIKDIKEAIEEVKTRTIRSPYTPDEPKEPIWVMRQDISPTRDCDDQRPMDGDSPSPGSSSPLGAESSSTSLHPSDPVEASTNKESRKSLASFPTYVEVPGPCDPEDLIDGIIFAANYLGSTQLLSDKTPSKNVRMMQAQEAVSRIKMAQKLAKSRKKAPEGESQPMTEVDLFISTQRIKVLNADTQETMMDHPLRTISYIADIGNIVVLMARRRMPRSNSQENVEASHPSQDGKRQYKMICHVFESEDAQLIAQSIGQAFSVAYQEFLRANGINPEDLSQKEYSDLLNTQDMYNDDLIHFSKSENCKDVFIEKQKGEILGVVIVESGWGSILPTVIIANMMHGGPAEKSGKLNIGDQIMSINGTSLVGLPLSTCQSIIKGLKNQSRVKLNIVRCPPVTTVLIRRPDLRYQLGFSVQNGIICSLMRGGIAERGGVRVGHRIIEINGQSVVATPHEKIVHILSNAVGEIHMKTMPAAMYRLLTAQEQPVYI

[23] = molecular target: Induced myeloid leukemia cell differentiation protein Mcl-1 (Homo sapiens, UniProt Q07820); format: functional
[24] = molecular target: T4, Voltage-gated N-type calcium channel alpha-1B subunit/Amyloid beta A4 precursor protein-binding family A member 1; assay: disruptors of Mint-PDZ/N-type channel peptide interaction – biochemical, HTRF, set 2, SAR follow-up (AID 434980); format: functional
[25] = molecular target: T4, Voltage-gated N-type calcium channel alpha-1B subunit/Amyloid beta A4 precursor protein-binding family A member 1; format: protein assay; remark: listed apart in the source
[26] = molecular target: T4, Voltage-gated N-type calcium channel alpha-1B subunit/Amyloid beta A4 precursor protein-binding family A member 1; assay: disruptors of Mint-PDZ/N-type channel peptide interaction – biochemical, HTRF, SAR follow-up (AID 2489); format: functional
INS1 = assay: beta cell apoptosis inhibitors, cytokine rescue, dose response, luminescence, retest (AID 449756); format: functional, cell-based; settings: Rattus norvegicus;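 also: cell death triggered by IL-1 beta plus TNF-alpha plus IFN-gamma mixture; protective hits raise ATP signal compared with cytokine alone wells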
[27] = Luminescence Cell-Based Dose Retest to Confirm Inhibitors of Cancer Stem Cells. [Related pubchem assays (depositor defined):AID2717, AID2721]; format: functional; settings: Homo sapiens
[28] = insulin promoter down-regulators in MIN6 cells, imaging, high-content screening, mouse beta cells (AID 1628); format: functional
[29] = cytotoxicity in MIN6 insulinoma cells, dose response, cytotoxicity control, cell-based, mouse insulinoma (AID 2122); format: functional;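 also: confirmatory high-throughput counterscreen run to flag cytotoxic compounds; mouse MIN-6 beta cells carrying an insulin promoter eGFP reporter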

T1 sequence (P98170 whole entry): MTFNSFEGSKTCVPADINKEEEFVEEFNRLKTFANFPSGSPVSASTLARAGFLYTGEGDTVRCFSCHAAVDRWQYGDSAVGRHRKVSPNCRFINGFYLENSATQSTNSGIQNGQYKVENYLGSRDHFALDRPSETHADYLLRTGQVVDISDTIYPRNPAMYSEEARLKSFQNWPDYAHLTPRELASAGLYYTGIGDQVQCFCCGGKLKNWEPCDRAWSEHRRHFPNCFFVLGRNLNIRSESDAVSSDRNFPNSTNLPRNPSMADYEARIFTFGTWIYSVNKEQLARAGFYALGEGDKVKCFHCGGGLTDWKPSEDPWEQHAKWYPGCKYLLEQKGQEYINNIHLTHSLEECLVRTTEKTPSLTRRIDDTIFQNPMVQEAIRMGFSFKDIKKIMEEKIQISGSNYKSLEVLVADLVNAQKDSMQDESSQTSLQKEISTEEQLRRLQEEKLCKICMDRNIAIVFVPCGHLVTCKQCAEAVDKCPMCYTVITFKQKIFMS

CC(C)(Nc1ccccc1)C(=O)c1ccccc1
IC50 [1]: > 100 µM (not active) | IC50 [2]: > 100 µM (inactive)

Cc1cc(C)cc(OCCOc2cccc(C=C3C(=O)NC(=O)NC3=O)c2)c1
IC50 (Genome polyprotein): 46.9 µM (active) | AC50 [3]: > 60 µM (inactive)

COc1cc2ccccc2cc1C(=O)Nc1ccc(N2CCOCC2)cc1
IC50 (CHO-K1): > 66.3 µM (inactive) | IC50 [4]: > 49.8 µM (inactive) | IC50 [5]: > 49.8 µM (inactive) | IC50 [6]: 8.59 µM (active)

Cc1ccc(-c2cc(C(=O)N/N=C/c3c(C)nn(-c4ccccc4)c3C)[nH]n2)cc1
EC50 [7]: 1.28 µM (inconclusive) | EC50 [8]: 0.327 µM (active) | EC50 [9]: 10.1 µM (active) | EC50 [10]: 5.9 µM (active) | EC50 [11]: 0.576 µM (active) | EC50 [12]: 1.75 µM (inconclusive) | EC50 (BJ [13]): 0.624 µM (inconclusive) | EC50 (BJ [14]): 0.603 µM (active) | EC50 [15]: 7.44 µM (active) | EC50 [16]: 1.01 µM (active) | EC50 (BJ [17]): 2.04 µM (inconclusive) | EC50 [18]: 14 µM (active) | EC50 [19]: 2.09 µM (inconclusive)

COc1cc(NC(=O)C2CCCN2S(=O)(=O)c2cccc3cccnc23)cc(OC)c1OC (stereo not given)
IC50 [1]: > 100 µM (not active) | IC50 [2]: > 100 µM (inactive)

CCOc1ccc(-c2cc(C(=O)O)[nH]n2)cc1
IC50 [20]: > 100 µM (not active) | IC50 [21]: 19.8 µM (active)

CCNC(=O)COC(=O)c1cc(-c2ccco2)nc2ccccc12
IC50 (SUMO E1/E2): 2.63 µM (active) | IC50 [22]: 33.6 µM (active) | IC50 [23]: 4.39 µM (active) | IC50 [24]: 13.3 µM (active) | IC50 [25]: 2.82 µM (active) | IC50 [26]: 18.5 µM (active)

Cc1cccc(N(C)S(=O)(=O)c2ccc(-c3cc(C)no3)s2)c1
EC50 [7]: 1.15 µM (inconclusive) | EC50 [8]: 0.155 µM (active) | EC50 [9]: 33.4 µM (active) | EC50 [10]: 1.15 µM (active) | EC50 [12]: 6.81 µM (inconclusive) | EC50 [15]: 9.86 µM (active) | EC50 [16]: 6.81 µM (active) | EC50 [18]: 10.4 µM (active) | EC50 [19]: 33.4 µM (inconclusive)

COc1ccc(C)cc1NS(=O)(=O)c1ccc(NC(=O)CN(c2cc([N+](=O)[O-])ccc2C)S(C)(=O)=O)cc1
AC50 (INS1): 0.846 µM (active) | EC50 [11]: 19.7 µM (active) | EC50 (BJ [14]): 21 µM (active) | AC50 [27]: 1.8 µM (active) | IC50 [28]: 1.1 µM (active) | EC50 (BJ [17]): 2.75 µM (active) | IC50 [29]: 1.2 µM (active)

COc1ccccc1CNC(=O)CNC(=O)c1cc(-c2ccco2)nc2ccccc12
IC50 (SUMO E1/E2): 3.37 µM (active) | IC50 [24]: > 56.8 µM (inactive) | IC50 [26]: 23.3 µM (active)

— ChEMBL document CHEMBL1201862, “PubChem BioAssay data set” (2004)
